According to PubChem BioAssay AID1259407 (Chemical Carcinogenesis Research Information System (CCRIS), 2018):
The source made the active and inactive calls. The rule behind the calls is not given here.

Test system: CCRIS mutagenicity, Ames/micronucleus/aberration tests
Experiment: CCRIS mutagenicity studies
[1] = Test System: AMES SALMONELLA TYPHIMURIUM, Strain/Indicator: TA98, Metabolic Activation: HAMSTER, LIVER, S-9, AROCLOR 1254, Method: PREINCUBATION
[2] = Test System: AMES SALMONELLA TYPHIMURIUM, Strain/Indicator: TA98, Metabolic Activation: NONE, Method: PREINCUBATION
[3] = Test System: AMES SALMONELLA TYPHIMURIUM, Strain/Indicator: TA98, Metabolic Activation: RAT, LIVER, S-9, AROCLOR 1254, Method: PREINCUBATION
[4] = Test System: AMES SALMONELLA TYPHIMURIUM, Strain/Indicator: TA100, Metabolic Activation: HAMSTER, LIVER, S-9, AROCLOR 1254, Method: PREINCUBATION
[5] = Test System: AMES SALMONELLA TYPHIMURIUM, Strain/Indicator: TA100, Metabolic Activation: NONE, Method: PREINCUBATION
[6] = Test System: AMES SALMONELLA TYPHIMURIUM, Strain/Indicator: TA100, Metabolic Activation: RAT, LIVER, S-9, AROCLOR 1254, Method: PREINCUBATION
[7] = Test System: AMES SALMONELLA TYPHIMURIUM, Strain/Indicator: TA1535, Metabolic Activation: NONE, Method: PREINCUBATION
[8] = Test System: AMES SALMONELLA TYPHIMURIUM, Strain/Indicator: TA1535, Metabolic Activation: RAT, LIVER, S-9, AROCLOR 1254, Method: PREINCUBATION
[9] = Test System: AMES SALMONELLA TYPHIMURIUM, Strain/Indicator: TA1537, Metabolic Activation: HAMSTER, LIVER, S-9, AROCLOR 1254, Method: PREINCUBATION
[10] = Test System: AMES SALMONELLA TYPHIMURIUM, Strain/Indicator: TA1537, Metabolic Activation: NONE, Method: PREINCUBATION
[11] = Test System: AMES SALMONELLA TYPHIMURIUM, Strain/Indicator: TA1537, Metabolic Activation: RAT, LIVER, S-9, AROCLOR 1254, Method: PREINCUBATION

C=CC(=O)NC(C)(C)CC(C)=O
mutagenic call [1]: inactive; negative
mutagenic call [2]: inactive; negative
mutagenic call [3]: inactive; negative
mutagenic call [4]: inactive; negative
mutagenic call [5]: inactive; negative
mutagenic call [6]: inactive; negative
mutagenic call (Test System: AMES SALMONELLA TYPHIMURIUM, Strain/Indicator: TA1535, Metabolic Activation: HAMSTER, LIVER, S-9, AROCLOR 1254, Method: PREINCUBATION): inactive; negative
mutagenic call [7]: inactive; negative
mutagenic call [8]: inactive; negative
mutagenic call [9]: inactive; negative
mutagenic call [10]: inactive; negative
mutagenic call [11]: inactive; negative

Nc1cccc(S(=O)(=O)O)c1
mutagenic call (Test System: AMES SALMONELLA TYPHIMURIUM, Strain/Indicator: TA97, Metabolic Activation: HAMSTER, LIVER, S-9, AROCLOR 1254 (10 OR 30%), Method: PREINCUBATION): inactive; negative
mutagenic call (Test System: AMES SALMONELLA TYPHIMURIUM, Strain/Indicator: TA97, Metabolic Activation: NONE, Method: PREINCUBATION): inactive; negative
mutagenic call (Test System: AMES SALMONELLA TYPHIMURIUM, Strain/Indicator: TA97, Metabolic Activation: RAT, LIVER, S-9, AROCLOR 1254 (10 OR 30%), Method: PREINCUBATION): inactive; negative
mutagenic call (Test System: AMES SALMONELLA TYPHIMURIUM, Strain/Indicator: TA98, Metabolic Activation: HAMSTER, LIVER, S-9, AROCLOR 1254 (10 OR 30%), Method: PREINCUBATION): inactive; negative
mutagenic call [2]: inactive; negative
mutagenic call (Test System: AMES SALMONELLA TYPHIMURIUM, Strain/Indicator: TA98, Metabolic Activation: RAT, LIVER, S-9, AROCLOR 1254 (10 OR 30%), Method: PREINCUBATION): inactive; negative
mutagenic call (Test System: AMES SALMONELLA TYPHIMURIUM, Strain/Indicator: TA98, Metabolic Activation: S-9, Method: PREINCUBATION): inactive; negative
mutagenic call (Test System: AMES SALMONELLA TYPHIMURIUM, Strain/Indicator: TA100, Metabolic Activation: HAMSTER, LIVER, S-9, AROCLOR 1254 (10 OR 30%), Method: PREINCUBATION): inactive; negative
mutagenic call [5]: inactive; negative
mutagenic call (Test System: AMES SALMONELLA TYPHIMURIUM, Strain/Indicator: TA100, Metabolic Activation: RAT, LIVER, S-9, AROCLOR 1254 (10 OR 30%), Method: PREINCUBATION): inactive; negative
mutagenic call (Test System: AMES SALMONELLA TYPHIMURIUM, Strain/Indicator: TA100, Metabolic Activation: S-9, Method: PREINCUBATION): inactive; negative
mutagenic call (Test System: AMES SALMONELLA TYPHIMURIUM, Strain/Indicator: TA1535, Metabolic Activation: HAMSTER, LIVER, S-9, AROCLOR 1254 (10 OR 30%), Method: PREINCUBATION): inactive; negative
mutagenic call [7]: inactive; negative
mutagenic call (Test System: AMES SALMONELLA TYPHIMURIUM, Strain/Indicator: TA1535, Metabolic Activation: RAT, LIVER, S-9, AROCLOR 1254 (10 OR 30%), Method: PREINCUBATION): inactive; negative
mutagenic call (Test System: UDS RODENT HEPATOCYTES, Strain/Indicator: THY INCORP (NON-S-PHASE), Metabolic Activation: NONE, Method: AUTORADIOGRAPHY): inactive; negative

c1ccc2cnccc2c1
mutagenic call [2]: inactive; negative
mutagenic call (Test System: AMES SALMONELLA TYPHIMURIUM, Strain/Indicator: TA98, Metabolic Activation: RAT, LIVER, S-9, Method: PREINCUBATION): inactive; negative
mutagenic call [5]: inactive; negative
mutagenic call (Test System: AMES SALMONELLA TYPHIMURIUM, Strain/Indicator: TA100, Metabolic Activation: RAT, LIVER, S-9, Method: PREINCUBATION): inactive; negative

O=[N+]([O-])c1cccc2c1-c1ccccc1C2
mutagenic call (End Point: IN VITRO CHROMOSOMAL ABERRATIONS, Test System: CHINESE HAMSTER LUNG (CHL) CELLS, Metabolic Activation: NONE): active; positive
mutagenic call (End Point: IN VITRO CHROMOSOMAL ABERRATIONS, Test System: CHINESE HAMSTER LUNG (CHL) CELLS, Metabolic Activation: RAT, LIVER, S-9, KC-400): active; positive

CC(=O)Nc1ccc(C(=O)[C@H]2O[C@H]2c2ccccc2)cc1
mutagenic call (Test System: AMES SALMONELLA TYPHIMURIUM, Strain/Indicator: TA98, Metabolic Activation: NONE, Method: STANDARD PLATE): inactive; negative
mutagenic call (Test System: AMES SALMONELLA TYPHIMURIUM, Strain/Indicator: TA98, Metabolic Activation: RAT, LIVER, S-9, AROCLOR 1254, Method: STANDARD PLATE): inactive; negative
mutagenic call (Test System: AMES SALMONELLA TYPHIMURIUM, Strain/Indicator: TA100, Metabolic Activation: NONE, Method: STANDARD PLATE): active; positive
mutagenic call (Test System: AMES SALMONELLA TYPHIMURIUM, Strain/Indicator: TA100, Metabolic Activation: RAT, LIVER, S-9, AROCLOR 1254, Method: STANDARD PLATE): active; positive

Oc1ccc(Cl)cc1Cl
mutagenic call (End Point: IN VITRO CHROMOSOMAL ABERRATIONS, Test System: CHO CELLS, Metabolic Activation: RAT, LIVER, S-9, AROCLOR 1254): inactive; negative
mutagenic call (End Point: IN VITRO CHROMOSOMAL ABERRATIONS, Test System: CHO CELLS, Metabolic Activation: RAT, LIVER, S-9, PHENOBARBITAL AND BETA-NAPHTHOFLAVONE): active; positive
mutagenic call (End Point: IN VITRO CHROMOSOMAL ABERRATIONS, Test System: TK6 HUMAN LYMPHOBLASTS, Metabolic Activation: NONE): inactive; negative; authors reported the results as equivocal
mutagenic call [1]: inactive; negative
mutagenic call [2]: inactive; negative
mutagenic call [3]: inactive; negative
mutagenic call (Test System: AMES SALMONELLA TYPHIMURIUM, Strain/Indicator: TA98, Metabolic Activation: S-9, Method: STANDARD PLATE): inactive; negative
mutagenic call [4]: inactive; negative
mutagenic call [5]: inactive; negative
mutagenic call [6]: inactive; negative
mutagenic call (Test System: AMES SALMONELLA TYPHIMURIUM, Strain/Indicator: TA100, Metabolic Activation: S-9, Method: STANDARD PLATE): inactive; negative
mutagenic call [7]: inactive; negative
mutagenic call [8]: inactive; negative
mutagenic call [9]: inactive; negative
mutagenic call [10]: inactive; negative
mutagenic call [11]: inactive; negative
mutagenic call (Test System: AMES SALMONELLA TYPHIMURIUM, Strain/Indicator: YG1021, Metabolic Activation: S-9, Method: STANDARD PLATE): inactive; negative
mutagenic call (Test System: AMES SALMONELLA TYPHIMURIUM, Strain/Indicator: YG1024, Metabolic Activation: S-9, Method: STANDARD PLATE): inactive; negative
mutagenic call (Test System: AMES SALMONELLA TYPHIMURIUM, Strain/Indicator: YG1026, Metabolic Activation: S-9, Method: STANDARD PLATE): inactive; negative
mutagenic call (Test System: AMES SALMONELLA TYPHIMURIUM, Strain/Indicator: YG1029, Metabolic Activation: S-9, Method: STANDARD PLATE): inactive; negative
mutagenic call (Test System: CHINESE HAMSTER V-79, Strain/Indicator: V-79/6-THIOGUANINE, Metabolic Activation: NONE, Method: STANDARD PLATE): inactive; negative
mutagenic call (Test System: MOUSE LYMPHOMA, Strain/Indicator: L5178Y (TK+/TK-), Metabolic Activation: NONE, Method: SUSPENSION/PLATE): active; positive
